Measurements: patent publication US20230085307A1, “PYRIDAZINONE COMPOUND AND HERBICIDE” (NISSAN CHEMICAL CORPORATION, priority 2019, published 2023)

Tests used:
late watergrass = assay: Test Example 1: herbicidal activity, application before weed generation under submerged conditions (Table 16, symbol A); assay type: in vivo, late watergrass (Echinochloa oryzicola); details: 320 g/ha applied herbicide
Method in brief: (§1)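 Submerged Wagner pots (alluvial soil, 4 cm water) sown with weed seeds and planted with 2.5-leaf rice seedlings; emulsifiable concentrate diluted in water applied to water surface on sowing day. Held in greenhouse at 25-30 °C; injury scored 0-5 by herbicidal rate after three weeks.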

Japanese bulrush = assay: Test Example 1: herbicidal activity, application before weed generation under submerged conditions (Table 16, symbol B); assay type: in vivo, Japanese bulrush (Schoenoplectus juncoides); details: 320 g/ha applied herbicide
Method in brief: as §1

oval-leafed pondweed = assay: Test Example 1: herbicidal activity, application before weed generation under submerged conditions (Table 16, symbol C); assay type: in vivo, oval-leafed pondweed (Monochoria vaginalis); details: 320 g/ha applied herbicide
Method in brief: as §1

barnyard grass [1] = assay: Test Example 3: herbicidal effect by foliage application, Wagner pot (Table 18, symbol H); assay type: in vivo, barnyard grass (Echinochloa crus-galli); details: amount of applied herbicide 320 g/ha
Method in brief: (§2)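 Plants were sown in alluvial soil held under 0.1–0.5 cm standing water and grown 14 days in a greenhouse at 25–30 °C. An emulsifiable formulation, water-diluted to the set dose, was then sprayed onto the foliage, and effects were scored three weeks later using previously defined criteria.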

Chinese sprangletop = assay: Test Example 3: herbicidal effect by foliage application, Wagner pot (Table 18, symbol D); assay type: in vivo, chinese sprangletop (Leptochloa chinensis); details: amount of applied herbicide 320 g/ha
Method in brief: as §2

rice flat sedge = assay: Test Example 3: herbicidal effect by foliage application, Wagner pot (Table 18, symbol E); assay type: in vivo, rice flat sedge (Cyperus iria); details: amount of applied herbicide 320 g/ha
Method in brief: as §2

southern crabgrass [2] = assay: Test Example 4: herbicidal effect by soil treatment (Table 19, symbol F); assay type: in vivo, southern crabgrass (Digitaria ciliaris); details: amount of applied herbicide 320 g/ha
Method in brief: (§3)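 Seeds were sown in sterilized diluvial soil and covered with about 1.5 cm of soil. An emulsion formulation diluted with water to a predetermined herbicide amount was sprayed evenly onto the soil surface. Plants grew in a greenhouse at 25° C. to 30° C., and the effect was scored three weeks after application using criteria from an earlier test.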

green foxtail [3] = assay: Test Example 4: herbicidal effect by soil treatment (Table 19, symbol G); assay type: in vivo, green foxtail (Setaria viridis); details: amount of applied herbicide 320 g/ha
Method in brief: as §3

barnyard grass [4] = assay: Test Example 4: herbicidal effect by soil treatment (Table 19, symbol H); assay type: in vivo, barnyard grass (Echinochloa crus-galli); details: amount of applied herbicide 320 g/ha
Method in brief: as §3

wild oat [5] = assay: Test Example 4: herbicidal effect by soil treatment (Table 19, symbol I); assay type: in vivo, wild oat (Avena fatua); details: amount of applied herbicide 320 g/ha
Method in brief: as §3

blackgrass [6] = assay: Test Example 4: herbicidal effect by soil treatment (Table 19, symbol J); assay type: in vivo, blackgrass (Alopecurus myosuroides); details: amount of applied herbicide 320 g/ha
Method in brief: as §3

Italian ryegrass [7] = assay: Test Example 4: herbicidal effect by soil treatment (Table 19, symbol K); assay type: in vivo, Italian ryegrass (Lolium multiflorum); details: amount of applied herbicide 320 g/ha
Method in brief: as §3

windgrass [8] = assay: Test Example 4: herbicidal effect by soil treatment (Table 19, symbol L); assay type: in vivo, windgrass (Apera spica-venti); details: amount of applied herbicide 320 g/ha
Method in brief: as §3

velvetleaf [9] = assay: Test Example 4: herbicidal effect by soil treatment (Table 19, symbol M); assay type: in vivo, velvetleaf (Abutilon theophrasti); details: amount of applied herbicide 320 g/ha
Method in brief: as §3

redroot pigweed [10] = assay: Test Example 4: herbicidal effect by soil treatment (Table 19, symbol N); assay type: in vivo, redroot pigweed (Amaranthus retroflexus); details: amount of applied herbicide 320 g/ha
Method in brief: as §3

lambsquarters [11] = assay: Test Example 4: herbicidal effect by soil treatment (Table 19, symbol O); assay type: in vivo, lambsquarters (Chenopodium album); details: amount of applied herbicide 320 g/ha
Method in brief: as §3

chickweed [12] = assay: Test Example 4: herbicidal effect by soil treatment (Table 19, symbol P); assay type: in vivo, common chickweed (Stellaria media); details: amount of applied herbicide 320 g/ha
Method in brief: as §3

persian speedwell [13] = assay: Test Example 4: herbicidal effect by soil treatment (Table 19, symbol R); assay type: in vivo, Persian speedwell (Veronica persica); details: amount of applied herbicide 320 g/ha
Method in brief: as §3

southern crabgrass [14] = assay: Test Example 5: herbicidal effect by foliage application, plastic box (Table 20, symbol F); assay type: in vivo, southern crabgrass (Digitaria ciliaris); details: foliage application, 320 g/ha, evaluated three weeks after application
Method in brief: (§4)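 Plants sown in sterilized diluvial soil and grown 14 days in a greenhouse at 25° C to 30° C, then sprayed on the foliage with the compound's emulsion diluted in water to a predetermined herbicide amount. Injury to weeds and crops scored three weeks after application on a visual rating scale.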

green foxtail [15] = assay: Test Example 5: herbicidal effect by foliage application, plastic box (Table 20, symbol G); assay type: in vivo, green foxtail (Setaria viridis); details: foliage application, 320 g/ha, evaluated three weeks after application
Method in brief: as §4

barnyard grass [16] = assay: Test Example 5: herbicidal effect by foliage application, plastic box (Table 20, symbol H); assay type: in vivo, barnyard grass (Echinochloa crus-galli); details: foliage application, 320 g/ha, evaluated three weeks after application
Method in brief: as §4

wild oat [17] = assay: Test Example 5: herbicidal effect by foliage application, plastic box (Table 20, symbol I); assay type: in vivo, wild oat (Avena fatua); details: foliage application, 320 g/ha, evaluated three weeks after application
Method in brief: as §4

blackgrass [18] = assay: Test Example 5: herbicidal effect by foliage application, plastic box (Table 20, symbol J); assay type: in vivo, blackgrass (Alopecurus myosuroides); details: foliage application, 320 g/ha, evaluated three weeks after application
Method in brief: as §4

Italian ryegrass [19] = assay: Test Example 5: herbicidal effect by foliage application, plastic box (Table 20, symbol K); assay type: in vivo, Italian ryegrass (Lolium multiflorum); details: foliage application, 320 g/ha, evaluated three weeks after application
Method in brief: as §4

windgrass [20] = assay: Test Example 5: herbicidal effect by foliage application, plastic box (Table 20, symbol L); assay type: in vivo, windgrass (Apera spica-venti); details: foliage application, 320 g/ha, evaluated three weeks after application
Method in brief: as §4

velvetleaf [21] = assay: Test Example 5: herbicidal effect by foliage application, plastic box (Table 20, symbol M); assay type: in vivo, velvetleaf (Abutilon theophrasti); details: foliage application, 320 g/ha, evaluated three weeks after application
Method in brief: as §4

redroot pigweed [22] = assay: Test Example 5: herbicidal effect by foliage application, plastic box (Table 20, symbol N); assay type: in vivo, redroot pigweed (Amaranthus retroflexus); details: foliage application, 320 g/ha, evaluated three weeks after application
Method in brief: as §4

lambsquarters [23] = assay: Test Example 5: herbicidal effect by foliage application, plastic box (Table 20, symbol O); assay type: in vivo, lambsquarters (Chenopodium album); details: foliage application, 320 g/ha, evaluated three weeks after application
Method in brief: as §4

chickweed [24] = assay: Test Example 5: herbicidal effect by foliage application, plastic box (Table 20, symbol P); assay type: in vivo, common chickweed (Stellaria media); details: foliage application, 320 g/ha, evaluated three weeks after application
Method in brief: as §4

persian speedwell [25] = assay: Test Example 5: herbicidal effect by foliage application, plastic box (Table 20, symbol R); assay type: in vivo, Persian speedwell (Veronica persica); details: foliage application, 320 g/ha, evaluated three weeks after application
Method in brief: as §4

Compound | Herbicidal effect on A: late watergrass (grade 0-5) (late watergrass) | Herbicidal effect on B: Japanese bulrush (grade 0-5) (Japanese bulrush) | Herbicidal effect on C: oval-leafed pondweed (grade 0-5) (oval-leafed pondweed) | herbicidal effect on H: barnyard grass (barnyard grass [1]) | herbicidal effect on D: Chinese sprangletop (Chinese sprangletop) | herbicidal effect on E: rice flat sedge (rice flat sedge) | herbicidal effect on F: southern crabgrass (criteria 0-5) (southern crabgrass [14]) | herbicidal effect on G: green foxtail (criteria 0-5) (green foxtail [15]) | herbicidal effect on H: barnyard grass (criteria 0-5) (barnyard grass [16]) | herbicidal effect on I: wild oat (criteria 0-5) (wild oat [17]) | herbicidal effect on J: blackgrass (criteria 0-5) (blackgrass [18]) | herbicidal effect on K: Italian ryegrass (criteria 0-5) (Italian ryegrass [19]) | herbicidal effect on L: windgrass (criteria 0-5) (windgrass [20]) | herbicidal effect on M: velvetleaf (criteria 0-5) (velvetleaf [21]) | herbicidal effect on N: redroot pigweed (criteria 0-5) (redroot pigweed [22]) | herbicidal effect on O: lambsquarters (criteria 0-5) (lambsquarters [23]) | herbicidal effect on P: chickweed (criteria 0-5) (chickweed [24]) | herbicidal effect on R: persian speedwell (criteria 0-5) (persian speedwell [25]) | other results
CCOc1cccc(-c2sc3ccc(F)cc3c2-c2c(O)c(C)nn(C)c2=O)c1 [2-211] | 2 (Herbicidal rate of 20% or more and less than 40%) | 0 (Herbicidal rate of 5% or less (almost no effect)) | 0 (Herbicidal rate of 5% or less (almost no effect)) | 5 (Herbicidal rate of 90% or more (almost completely withered)) | 5 (Herbicidal rate of 90% or more (almost completely withered)) | 4 (Herbicidal rate of 70% or more and less than 90%) | 5 (Herbicidal rate of 90% or more (almost completely withered)) | 5 (Herbicidal rate of 90% or more (almost completely withered)) | 5 (Herbicidal rate of 90% or more (almost completely withered)) | 0 (Herbicidal rate of 5% or less (almost no effect)) | 4 (Herbicidal rate of 70% or more and less than 90%) | 5 (Herbicidal rate of 90% or more (almost completely withered)) | 4 (Herbicidal rate of 70% or more and less than 90%) | 5 (Herbicidal rate of 90% or more (almost completely withered)) | 5 (Herbicidal rate of 90% or more (almost completely withered)) | 5 (Herbicidal rate of 90% or more (almost completely withered)) | 5 (Herbicidal rate of 90% or more (almost completely withered)) | 5 (Herbicidal rate of 90% or more (almost completely withered)) | F: southern crabgrass, herbicidal effect rating (southern crabgrass [2]): 5 (Herbicidal rate of 90% or more (almost completely withered)); G: green foxtail, herbicidal effect rating (green foxtail [3]): 4 (Herbicidal rate of 70% or more and less than 90%); H: barnyard grass, herbicidal effect rating (barnyard grass [4]): 5 (Herbicidal rate of 90% or more (almost completely withered)); I: wild oat, herbicidal effect rating (wild oat [5]): 0 (Herbicidal rate of 5% or less (almost no effect)); J: blackgrass, herbicidal effect rating (blackgrass [6]): 4 (Herbicidal rate of 70% or more and less than 90%); K: Italian ryegrass, herbicidal effect rating (Italian ryegrass [7]): 5 (Herbicidal rate of 90% or more (almost completely withered)); L: windgrass, herbicidal effect rating (windgrass [8]): 3 (Herbicidal rate of 40% or more and less than 70%); M: velvetleaf, herbicidal effect rating (velvetleaf [9]): 3 (Herbicidal rate of 40% or more and less than 70%); N: redroot pigweed, herbicidal effect rating (redroot pigweed [10]): 5 (Herbicidal rate of 90% or more (almost completely withered)); O: lambsquarters, herbicidal effect rating (lambsquarters [11]): 2 (Herbicidal rate of 20% or more and less than 40%); P: chickweed, herbicidal effect rating (chickweed [12]): 3 (Herbicidal rate of 40% or more and less than 70%); R: persian speedwell, herbicidal effect rating (persian speedwell [13]): 5 (Herbicidal rate of 90% or more (almost completely withered))
CCCC(=O)Oc1c(C)nn(C)c(=O)c1-c1c(-c2cccc(OC(C)(C)C)c2)sc2ccc(F)cc12 [2-224] | 5 (Herbicidal rate of 90% or more (almost completely withered)) | 0 (Herbicidal rate of 5% or less (almost no effect)) | 0 (Herbicidal rate of 5% or less (almost no effect)) | 4 (Herbicidal rate of 70% or more and less than 90%) | 4 (Herbicidal rate of 70% or more and less than 90%) | 3 (Herbicidal rate of 40% or more and less than 70%) | 0 (Herbicidal rate of 5% or less (almost no effect)) | 1 (Herbicidal rate of 5% or more and less than 20%) | 3 (Herbicidal rate of 40% or more and less than 70%) | 0 (Herbicidal rate of 5% or less (almost no effect)) | 0 (Herbicidal rate of 5% or less (almost no effect)) | 0 (Herbicidal rate of 5% or less (almost no effect)) | 0 (Herbicidal rate of 5% or less (almost no effect)) | 3 (Herbicidal rate of 40% or more and less than 70%) | 2 (Herbicidal rate of 20% or more and less than 40%) | 3 (Herbicidal rate of 40% or more and less than 70%) | 5 (Herbicidal rate of 90% or more (almost completely withered)) | 5 (Herbicidal rate of 90% or more (almost completely withered)) | herbicidal effect on F: southern crabgrass (southern crabgrass [2]): 0 (Herbicidal rate of 5% or less (almost no effect)); herbicidal effect on G: green foxtail (green foxtail [3]): 0 (Herbicidal rate of 5% or less (almost no effect)); herbicidal effect on H: barnyard grass (barnyard grass [4]): 0 (Herbicidal rate of 5% or less (almost no effect)); herbicidal effect on I: wild oat (wild oat [5]): 0 (Herbicidal rate of 5% or less (almost no effect)); herbicidal effect on J: blackgrass (blackgrass [6]): 0 (Herbicidal rate of 5% or less (almost no effect)); herbicidal effect on K: Italian ryegrass (Italian ryegrass [7]): 0 (Herbicidal rate of 5% or less (almost no effect)); herbicidal effect on L: windgrass (windgrass [8]): 0 (Herbicidal rate of 5% or less (almost no effect)); herbicidal effect on M: velvetleaf (velvetleaf [9]): 0 (Herbicidal rate of 5% or less (almost no effect)); herbicidal effect on N: redroot pigweed (redroot pigweed [10]): 0 (Herbicidal rate of 5% or less (almost no effect)); herbicidal effect on O: lambsquarters (lambsquarters [11]): 0 (Herbicidal rate of 5% or less (almost no effect)); herbicidal effect on P: chickweed (chickweed [12]): 0 (Herbicidal rate of 5% or less (almost no effect)); herbicidal effect on R: persian speedwell (persian speedwell [13]): 4 (Herbicidal rate of 70% or more and less than 90%)
